These results are taken from patent publication US10815219B2, “2,4-diaminoquinazoline derivatives for inhibiting endoplasmic reticulum (ER) stress” (The Board of Regents of the University of Oklahoma, priority 2017, dated 2020).

One test concerns βTC6 cells. Kind of test: βTC6 cell viability after Tm treatment (CellTiter-Glo). In kind it is cell-based. The note with it: Tm 0.25 μg/mL, 72 h, FIG. 3B. An excerpt: To rule out the possibility of an ATP-specific (rather than viability) effect of the compounds, we used the MTT assay, which measures the activity of NAD(P)H-dependent cellular oxidoreductase enzymes, as an orthogonal method to measure cell viability. […] To confirm that the protective effect of 9c on β cells is not INS-1 cell-specific, another β cell line, βTC6, was used. […] To determine whether the protective effect of 9c on β cells is specific to Tm-induced stress, we used another ER stressor, BFA, which inhibits a key guanine nucleotide exchange factor essential for the transport of proteins from the ER to the Golgi, to treat INS-1 cells.
INS-1 cells or βTC6 cells were seeded at 3×10^3 cells/well in a 384-well plate and treated with compounds at the indicated concentrations. After 3 d treatment, the medium was aspirated and 20 μL/well of CellTiter-Glo reagent (Promega, WI, USA) was added for the detection of intracellular ATP levels. Cell viability was measured with an EnVision multilabel plate reader (PerkinElmer, MA, USA).
(In ATP-based viability assays light output follows the ATP content of the culture.)

A further test deals with primary human β cells. The test is described as follows: TUNEL staining of primary human islet β cells treated with Tm. In kind it is cell-based. Particulars: primary human islets, Tm 1 μg/mL, 9c 10 μM, 48 h; Tm alone 15%, DMSO 2.5%. From the text: We determined whether 9c suppresses the apoptosis of primary human β cells induced by Tm treatment as assessed by TUNEL, which detects fragmentation of DNA, a marker of apoptotic cell death. […] Next, we investigated whether 9c restored the Tm-induced insulin secretion defect. […] ER stress induces activation of three branches of UPR (PERK, IRE1α, and ATF6), leading to up-regulation of ATF4, XBP1s, Bip, […], CHOP and eventual activation caspase 3 and cell apoptosis, while diminishing the expression of PDX1, MAFA and insulin genes, leading to β cell dysfunction. Compound 9c protects β cell against ER stress-mediated dysfunction and death by down-regulating ATF4, XBP1s, Bip, GRP94, CHOP, and caspase 3 and up-regulating PDX1, MAFA and insulin genes.
Primary human islets were washed with PBS and fixed with 4% paraformaldehyde for 30 min. Fixed cells were then blocked in 5% normal donkey serum for 30 min. Polyclonal guinea pig anti-insulin (A0564, Dako, 1:500 dilution) was used as primary antibody. Donkey Cy3 anti-guinea pig IgG was used as the secondary antibody. TUNEL staining was performed with In Situ Cell Death Detection Kit-Fluorescein (Roche) according to the manufacturer's instructions. DAPI was used for nuclear counter-staining. Images were taken with an Olympus FV1000 confocal microscope.

The test system of a further test is INS1 and INS2 mRNA. The test is described as follows: qRT-PCR of insulin genes in Tm-treated INS-1 cells. In kind it is cell-based, rat. Particulars: Tm 0.1 μg/mL, 9c 20 μM, 24 h, FIG. 5A, B. From the text: (§1) ER stress also impairs the most important function of β cells: the biosynthesis and secretion of insulin. Multiple steps of insulin synthesis and secretion are impaired under ER stress; they include insulin gene transcription, insulin mRNA stability, protein translation, and the insulin protein secretory process. First, we examined whether compound 9c could rescue Tm-suppressed mRNA levels of insulin genes. […] Second, we examined whether compound 9c affects the expression of β cell transcription factors PDX1 and MafA, which control β cell identity and the expression of insulin genes. Chronic exposure to supraphysiologic concentrations of glucose and its associated ER stress cause the down-regulation of expression of PDX1 and MafA. Consistent with this notion, Tm decreased the levels of PDX1 and MafA mRNA expression levels in INS-1 cells. […] Next, we explored whether compound 9c re-establishes Tm-impaired glucose-stimulated insulin secretion (GSIS).
(§2) INS-1 cells were seeded at 4×10^5 cells/well in 6-well plates and treated with compounds for the indicated times. Total RNA was extracted using TRIzol reagent (Invitrogen, Carlsbad, Calif.) according to the manufacturer's protocol, and 2 μg of total RNA was reverse transcribed using a Superscript kit (Invitrogen). […]

The subject of the next test is PDX1 and MafA mRNA. Kind of test: qRT-PCR of β cell transcription factors in Tm-treated INS-1 cells. Particulars: Tm 0.1 μg/mL, 9c 20 μM, 24 h, FIG. 5C, D. In kind it is cell-based, rat.
Source text: as §1, §2
Background: Quantitative PCR measures a nucleic acid by following its amplification.

In test [1] the test system is cleaved caspase-3 and PARP. The test is described as follows: Western blotting of cleaved caspase-3 and cleaved PARP in Tm-treated INS-1 cells. In kind it is cell-based, rat. The note with it: Tm 0.1 μg/mL, 9c 20 μM, 24 h, FIG. 4A. As for the experimental part:
(§3) To determine whether the increase in cell viability following treatment with 9c was caused by a suppression of apoptotic cell death, levels of cleaved caspase-3 and cleaved PARP were assessed by Western blotting. Caspase-3, a member of executioner caspases, plays essential roles in initiating apoptotic signaling and executing the final stages of cell death as it is responsible for the proteolytic cleavage of many key proteins, such as the nuclear enzyme poly (ADP-ribose) polymerase (PARP) which is a family of proteins involved in a number of cellular processes involving DNA repair and cell death. […] However, upon severe ER stress, caspase 3 undergoes proteolytic cleavage to produce two subunits that dimerize to form the active enzyme, which in turns cleaves PARP.
INS-1 cells were seeded in 60-mm dishes at 8×10^5 cells/dish and treated for the indicated times. Cells were then washed with PBS and lysed with lysis buffer (Cell Signaling Technology, Danvers, Mass.) containing EDTA (Thermo, IL) and phosphatase inhibitors (Thermo). Aliquots of 20 μg total protein were separated on 7% SDS-PAGE gels (Life Technologies) and transferred to PVDF membranes (Life Technologies). The membranes were probed with primary antibodies followed by the appropriate HRP-conjugated secondary antibodies (goat anti-rabbit IgG and goat anti-mouse IgG, 1:3000; Santa Cruz Biotechnology, CA, USA). […]
Background: Immunoblotting shows a protein as a band on a membrane.

A further test deals with INS-1 cells. Kind of test: Live-cell phase-contrast images of Tm-treated INS-1 cells. In kind it is cell-based, rat. Particulars: Tm 0.1 μg/mL, 9c 20 μM, 24 h, FIG. 4B. As for the experimental part:
(A) INS-1 cells were treated with or without Tm (0.1 μg/mL) in the presence of 9c (20 μM) or DMSO for the indicated times. Cleaved caspase-3 and PARP were determined by Western blotting. A-Tubulin was used as a loading control. The data shown are representative of 3 independent experiments. (B) INS-1 cells were treated with or without Tm (0.1 μg/mL) in the presence of 9c (20 μM) or DMSO for 24 h, and live-cell phase-contrast images were acquired (magnification 10×).
as §3

Each structure is given as a SMILES string.

As to `COc1ccc(CNc2nc(N3CCCCC3CO)nc3ccccc23)cc1` (racemic) [Compound 9c, (1-(4-((4-methoxybenzyl)amino)quinazolin-2-yl)piperidin-2-yl)methanol], the “viability of βTC6 cells (intracellular ATP level)” value with βTC6 cells was “rescued the viability of βTC6 cells in a dose-dependent manner”. Besides, the “percentage of TUNEL+ insulin+ cells” value in the test with primary human β cells was 3.5%. In addition, the “mRNA levels of insulin genes INS1 and INS2” value with INS1 and INS2 mRNA was “completely rescued”. For the same compound, the “PDX1 and MafA mRNA expression levels” value in the test on PDX1 and MafA mRNA is on record as “almost completely reversed this decrease to normal levels”. In addition, in test [1], the “cleaved caspase-3 and cleaved PARP protein levels” value is “significantly reversed Tm-induced cleavage of both caspase-3 and PARP”. For the same compound, in the test with INS-1 cells, the “viable cells observed (phase-contrast)” value is recorded as “significantly more viable cells”.
